As usually defined, the IC50 is the concentration needed to halve the response being measured. As a reminder, the inhibition is the relative decrease from the control value, in per cent.

Values joined by “and” are separate entries in the source; they are usually repeats but may differ in a detail not shown here. Identical values can stand only once.

In one assay the target is T1, Human SGLT1 (Homo sapiens, UniProt P13866).
T1 construct: expressed in transfected cells; host or cells: CHO cells, constitutive expression
T1 sequence (P13866 1-664): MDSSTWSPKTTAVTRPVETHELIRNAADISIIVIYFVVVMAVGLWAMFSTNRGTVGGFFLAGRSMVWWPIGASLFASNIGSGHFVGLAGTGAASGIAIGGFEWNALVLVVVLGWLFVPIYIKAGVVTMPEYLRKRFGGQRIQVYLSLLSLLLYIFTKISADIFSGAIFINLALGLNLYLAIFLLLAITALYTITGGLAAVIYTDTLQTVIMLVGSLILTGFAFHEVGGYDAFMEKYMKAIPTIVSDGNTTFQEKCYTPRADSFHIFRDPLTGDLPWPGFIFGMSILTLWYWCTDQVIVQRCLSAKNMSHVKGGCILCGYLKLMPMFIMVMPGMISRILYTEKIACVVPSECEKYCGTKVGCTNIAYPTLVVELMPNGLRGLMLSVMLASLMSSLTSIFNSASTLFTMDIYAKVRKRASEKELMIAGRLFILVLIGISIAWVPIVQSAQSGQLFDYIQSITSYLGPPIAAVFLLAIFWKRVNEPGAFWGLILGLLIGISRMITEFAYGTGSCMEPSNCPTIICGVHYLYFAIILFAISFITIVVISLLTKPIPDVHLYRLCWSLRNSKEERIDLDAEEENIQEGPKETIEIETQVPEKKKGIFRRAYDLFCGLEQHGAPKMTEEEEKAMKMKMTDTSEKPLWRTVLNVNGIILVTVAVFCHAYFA
The experiment in a line: SGLT1 activity assay (14C-alpha-methyl-D-glucopyranoside uptake in CHO cells). The format is cell-based. The following applies: geometric mean, n=4. The protocol: Generation of constitutive human Pit-2 and SGLT1 overexpressing CHO cells and activity assays measuring the uptake of ^33P phosphate for 45 minutes at 20°C for Pit-2 and ^14C-α-methyl-D-glucopyranoside for 120 minutes at 37°C for SGLT1, were also described previously.

Assay [1] has as its system intestinal phosphate absorption. The experiment in a line: Phosphate absorption in rats: 33P in plasma (15 min) and recovered in gastrointestinal tract (4 h), single agents and combination. The format is in vivo. The following applies: 0.4 mg/kg LY3304000, 10 mg/kg LY3358966 or both. The protocol:
We also evaluated the effect of LY3304000 and LY3358966 in combination on phosphate absorption in rats by measuring radioactive phosphate recovered in either plasma or the gastrointestinal (GI) tract. In this combination study, two vehicles were used. One is 1% HEC vehicle for making LY3304000 dosing solution, another is 0.46% PVP-VA vehicle contained in LY3358966 SDD. To make the LY3358966 dosing solution, an appropriate amount of LY3358966-SDD was weighed for a 10 mg/kg API dosing solution with 5 mL/kg dosing volume and dissolved in water. To make the LY3304000 dosing solution, an appropriate amount of LY3304000 was weighed for a 0.4 mg/kg dosing solution with 5 mL/kg dosing volume and dissolved in 1% HEC. The Radiolabeled Phosphate Dosing Solutions was made as described above. Following 4-hour fasting with access to water, male SD rats were orally dosed at 10 mL/kg with either two vehicles, an LY3358966 dosing solution and 1% HEC vehicle, an LY3304000 dosing solution and 0.46% PVP-VA vehicle, or an LY3304000 and LY3358966 dosing solutions, combined 1:1 by volume. Fifteen minutes later, Radiolabeled Phosphate Dosing Solution was orally dosed in a 2 mL volume. Fifteen minutes after the radiolabeled phosphate dose, blood was collected by retro orbital bleeding, and plasma was prepared. Radioactivity (dpm) in 20-μL plasma was measured by scintillation counting. The mole amount of phosphate uptake in the plasma was calculated as described above. Four hours post radioactive phosphate dose, the animals were sacrificed by asphyxiation with CO2 followed by cervical dislocation and then the stomach, small intestine, large intestine, and feces were collected and weighed. The tissues and feces were digested in 20 mL or 10 mL of 1 N NaOH, respectively, overnight at 37°C. A 100 μL sample of the homogenates were dispensed into scintillation vials and mixed with 10 mL of Optiphase Supermax scintillation fluid (PerkinElmer), and radioactivity (dpm) was measured by scintillation counting. Very little radioactivity was detected in the feces at 4 hours post radioactive phosphate dose. The percentage of radiolabeled phosphate recovered in the gastrointestinal tissue was defined as radioactivity (dpm) recovered in each fraction compared to the amount of radioactivity (dpm) administered. The mole amount of phosphate uptake into plasma in vehicle and LY3358966 and LY3304000 alone groups were compared to the LY3358966 and LY3304000 combination group using One-way ANOVA with Dunnett’s multiple comparisons. Percent recovery of ^33P phosphate in the rat gastrointestinal tract was analyzed by two-way analysis of variance (ANOVA) in JMP 12.1 to test for additivity of the effects of LY3304000 and LY3358966 on inhibiting phosphate absorption.

For assay [2], the system named is acute phosphate uptake into plasma. The experiment in a line: Acute phosphate uptake in rats, LY3304000 with fixed 1.2 mg/kg LY3358966. It counts as in vivo. The protocol:
NHE3 inhibitor LY3304000 and NPT2b inhibitor LY3358966 SDD were used in combination to assess their effect on phosphate absorption in rats. To make the LY3358966 dosing solution, an appropriate amount of LY3358966 SDD was weighed for a 1.2 mg/kg API dosing solution with 10 mL/kg dosing volume and dissolved in water. To make the LY3304000 dosing solution, an appropriate amount of LY3304000 was weighed for a 10 mg/kg dose with 10 mL/kg dosing volume and dissolved in 1% HEC vehicle. The subsequent dosing solutions for 3, 1, 0.3, 0.1, 0.03, 0.01, 0.003, and 0.001 mg/kg LY3304000 were prepared by serial dilutions with 1% HEC. Following 12-hour fasting, male SD rats were orally dosed at 10 mL/kg with 1% HEC vehicle, 1.2 mg/kg LY3358966 or increasing doses of LY3304000 with a fixed, 1.2 mg/kg dose of LY3358966. In the vehicle group, the animals were dosed first with 1% HEC immediately followed by water. In the LY3358966 alone group, the animals were first dosed with 1% HEC immediately followed by LY3358966. In the combination groups, the animals were dosed first with LY3304000 immediately followed by LY3358966. Fifteen minutes later, 2 mL Radiolabeled Phosphate Dosing Solution was orally dosed. Fifteen minutes later, blood was collected by cardiac stick, and plasma was prepared. Radioactivity (dpm) in 50-μL plasma was measured by scintillation counting. To measure the total radioactivity dosed to each rat, the radioactivity in two 10-μL samples of the Radiolabeled Phosphate Dosing Solutions was measured by scintillation counting. The mole amount of phosphate uptake was calculated as described above to determine acute phosphate uptake.

Regarding `CN1Cc2c(Cl)cc(Cl)cc2[C@H](c2cccc(S(=O)(=O)NCCOCCOCCN/C(=N\C(N)=O)NCCCCN/C(=N/C(N)=O)NCCOCCOCCNS(=O)(=O)c3cccc([C@@H]4CN(C)Cc5c(Cl)cc(Cl)cc54)c3)c2)C1.Cl.Cl` [LY3304000, (Z)-[[4-[[(Z)-N’-carbamoyl-N-[2-[2-[2-[[3-[(4S)-6,8-dichloro-2-methyl-3,4-dihydro-1H-isoquinolin-4-yl]phenyl]sulfonylamino]ethoxy]ethoxy]ethyl]carbamimidoyl]amino]butylamino]-[2-[2-[2-[[3-[(4S)-6,8-dichloro-2-methyl-3,4-dihydro-1H-isoquinolin-4-yl]phenyl]sulfonylamino]ethoxy]ethoxy]ethylamino]methylene]urea dihydrochloride], inhibition against Human SGLT1 was half-maximal at 6.6 µM (IC50). In assay [1] (15 min post 33P phosphate, vehicle 166, mean ± SEM, n=8), the “phosphate uptake into plasma” value is 118 nmol and 118 ± 8 nmol. In assay [1] (4 h), the “percentage of radiolabeled phosphate recovered, Feces” value was less than 0.1%; the “percentage of radiolabeled phosphate recovered, Large Intestine” value is listed as 18.16 +/- 2.58%; the “percentage of radiolabeled phosphate recovered, Small Intestine” value is on record as 8.64 +/- 0.32%; the “percentage of radiolabeled phosphate recovered, Stomach” value is listed as 3.9 +/- 0.49%. In addition, in assay [1] (4 h post 33P phosphate, stomach, small intestine, large intestine and feces, vehicle 25%), the “percentage of 33P recovered in GI tract, total” value was 31 ± 7% and 31% and 30.7 +/- 2.43%. The inhibition at 0.4 mg/kg in assay [1] (Rattus norvegicus, 0.25 h, 15 min post 33P phosphate, versus vehicle, read-out: inhibition of phosphate uptake into plasma) stood at 29%. For the same compound, the “acute phosphate uptake, % of vehicle control” value in assay [2] (highest dose of LY3304000 plus 1.2 mg/kg LY3358966) was determined as 30%. The “acute phosphate uptake into plasma” value in assay [2] (highest dose of LY3304000 tested plus 1.2 mg/kg LY3358966, vehicle 710 nmoles) came out at 212 nmol.
